Here are results for 22 compounds from ChEMBL document CHEMBL5236550, “Small molecule selenium-containing compounds: Recent development and therapeutic applications” (Eur J Med Chem, 2021).

What is called IC50 is the concentration at which inhibition is half-maximal. Usually Ki stands for a measure of affinity in units of concentration, obtained from inhibition or displacement.

≈ marks a conversion by molar mass, not a printed value.

Assay [1] deals with Candida albicans. The experiment in a line: Antifungal activity against Candida albicans ATC90028 assessed as zone of inhibition. In kind it is functional.
Assay [2] relates to Candida albicans. Briefly: Antifungal activity against Candida albicans ATC90028 assessed as […] growth inhibition. In kind it is functional.
For a further assay, the system named is Pichia kudriavzevii. Briefly: Antifungal activity against Candida krusei assessed as fungal growth inhibition incubated for 24 to 48 hrs by microdilution method. It is filed as functional. The conditions noted are these: time 24-48 hrs. Background: Broth dilution looks for growth in wells or tubes with falling amounts of substance.
Assay [3] can be described thus: Anticancer activity against human PMNL assessed as cell growth inhibition incubated for 5 mins by luminescence reader analysis. It is filed as functional, cell-based.
For assay [4], the system named is Encephalomyocarditis virus. The experiment in a line: Antiviral activity against Encephalomyocarditis virus infected in A549 cells assessed as viral growth inhibition incubated for 1 hrs. It is filed as functional, organism-based. The conditions noted are these: Cardiovirus A, A549, 1 h.
The subject of a further assay is Human alphaherpesvirus 1. Briefly: Antiviral activity against Herpes simplex virus 1infected in A549 cells assessed as viral growth inhibition incubated for 1 hrs. It is filed as functional.
In a further assay the test system is PC-3M. The experiment in a line: Anticancer activity against human PC-3M cells assessed as cell growth inhibition incubated for 24 hrs by MTT assay. In kind it is functional, cell-based. Background: Formazan colour is commonly taken as a measure of viable cells.
In a further assay the test system is PC-3. The experiment in a line: Anticancer activity against human PC-3 cells assessed as cell growth incubation incubated for 72 hrs by MTT assay. It is filed as functional, cell-based. The conditions noted are these: PC-3, 72 h.
In assay [5] the test system is MCF7. Briefly: Anticancer activity against human MCF7 cells assessed as cell growth inhibition incubated for 24 hrs by ELISA based CCK8 assay. It is filed as functional. Particulars: MCF7, 24 h. For orientation: ELISA stands for enzyme-linked immunosorbent assay.
For the next assay, the system named is HeLa. Briefly: Anticancer activity against human HeLa cells assessed as cell growth inhibition incubated for 48 hrs. It is filed as functional, cell-based.
The next assay concerns HepG2. The experiment in a line: Anticancer activity against human HepG2 cells assessed as cell growth inhibition incubated for 48 hrs. The conditions noted are these: HepG2, 48 h. It is filed as functional, cell-based.
Another assay deals with Trypanosoma cruzi. The experiment in a line: Antibacterial activity against Trypanosoma cruzi Dm28c assessed as inhibition of bacterial growth incubated for 72 hrs by microplate reader analysis. In kind it is functional, organism-based.
Assay [6] in a line: Anticancer activity against human PMNL assessed as cell growth inhibition. It is filed as functional, cell-based.
Another assay concerns UACC-375. The experiment in a line: Anticancer activity against human UACC-375 cells assessed as cell growth inhibition measured after 6 days by SRB assay. It is filed as functional, cell-based.
For the next assay, the system named is HT-29. Briefly: Anticancer activity against human HT-29 cells assessed as cell growth inhibition measured after 6 days by SRB assay. In kind it is functional, cell-based. Particulars: HT-29, 144 h.
In the next assay the test system is Plasmodium falciparum. The experiment in a line: […] inhibition incubated for 72 hrs by light microscopic analysis. It is filed as functional, organism-based. The conditions noted are these: K-1, 72 h.
The test system of a further assay is MCF7S. The experiment in a line: Anticancer activity against human MCF7S cells assessed as cell growth inhibition measured after 6 days by SRB assay. It is filed as functional. The conditions noted are these: time 6 day.
Another assay has as its system A549. Briefly: Anticancer activity against human A549 cells assessed as cell growth inhibition measured after 6 days by SRB assay. It is filed as functional, cell-based. Particulars: A549, 144 h.
Another assay deals with DU-145. Briefly: Anticancer activity against human DU-145 cells assessed as cell growth inhibition measured after 6 days by SRB assay. In kind it is functional, cell-based. The conditions noted are these: DU-145, 144 h.
Another assay has as its system MDA-MB-231. Briefly: Anticancer activity against human MDA-MB-231 cells assessed as cell growth inhibition incubated for 72 hrs by MTT assay. In kind it is functional, cell-based. The conditions noted are these: MDA-MB-231, 72 h.
In assay [7] the test system is MCF7. Briefly: Anticancer activity against human MCF7 cells assessed as cell growth inhibition incubated for 72 hrs by MTT assay. It is filed as functional, cell-based. The conditions noted are these: MCF7, 72 h.
Another assay addresses Carbonic anhydrase 1 (Homo sapiens, UniProt P00915). The experiment in a line: Inhibition of human carbonic anhydrase 1 assessed as inhibition constant.
The next assay deals with Carbonic anhydrase 2 (Homo sapiens, UniProt P00918). Briefly: Inhibition of human carbonic anhydrase 2 assessed as inhibition constant.
Assay [8] deals with MCF7. Briefly: Anticancer activity against human MCF7 cells assessed as cell growth incubation incubated for 72 hrs by MTT assay. It is filed as functional, cell-based. Particulars: MCF7, 72 h.

Sequence of Carbonic anhydrase 1 (P00915 whole entry): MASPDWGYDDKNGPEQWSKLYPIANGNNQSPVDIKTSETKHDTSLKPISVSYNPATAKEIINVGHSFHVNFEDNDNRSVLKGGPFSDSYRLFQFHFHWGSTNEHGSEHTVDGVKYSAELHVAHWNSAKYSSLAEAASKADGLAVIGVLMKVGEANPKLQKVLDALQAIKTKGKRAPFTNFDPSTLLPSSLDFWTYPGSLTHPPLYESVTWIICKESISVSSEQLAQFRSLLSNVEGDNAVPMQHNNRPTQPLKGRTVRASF

With `Cc1ccc(C(=O)C[C@@H](c2ccc(Cl)cc2)[C@@H]2CCCc3[se]nnc32)cc1`, the “inhibition zone (IZ)” value in the assay on Candida albicans [1] came out at 17 mm. The MIC with Candida albicans [2] was 12.5 µg/mL (≈ 28.2 µM).

On to `Ic1ccc(-c2c[se]c(NN=C3CCSCC3)n2)cc1`, for which, in the assay on Pichia kudriavzevii, the MIC amounted to 0.98 µg/mL (≈ 2.12 µM). As to `CCN(CC)C(=[Se])c1ccc(Cl)cc1`, the IC50 in assay [3] stood at 20.3 µM.

With `CC(=O)n1[se]c2ccccc2c1=O`, the IC50 in [4] was found to be 6 µg/mL (≈ 25 µM). For the same compound, the MIC with Human alphaherpesvirus 1 turned out to be 4 µg/mL (≈ 16.7 µM). For the compound `O=C(C[C@@H](c1ccc(Cl)cc1)[C@@H]1CCCc2[se]nnc21)c1ccc(Cl)cc1`, the “inhibition zone (IZ)” value with Candida albicans [1] is 15 mm. Also, in the assay on Candida albicans [2], the MIC came to 12.5 µg/mL (≈ 26.9 µM). For the compound `CCOC(=O)n1[se]c2ccccc2c1=O`, the IC50 in [4] amounted to 10 µg/mL (≈ 37 µM). The MIC in the assay on Human alphaherpesvirus 1 amounted to 10 µg/mL (≈ 37 µM). `N#C[Se]Cc1cc(-c2ccccc2)n(-c2ccc(S(N)(=O)=O)cc2)n1`: the IC50 in the assay with PC-3M amounted to 5 µM. For the compound `Clc1ccccc1C(c1ccccc1)(c1ccccc1)n1ccnc1` [CLOTRIMAZOLE], in the assay with Candida albicans [1], the “inhibition zone (IZ)” value worked out at 28 mm. For the same compound, in the assay with Candida albicans [2], the MIC is 6.25 µg/mL (≈ 18.1 µM). With `COc1cc(OC)cc(C(=O)[Se]CC(=O)O)c1`, in the assay with PC-3, the IC50 stood at 4 µM. With `Clc1ccc([Se][Se]c2ccc(Cl)nn2)nn1`, in the assay on MCF7 [5], the IC50 is 10.3 µM.

As for `CN(C)c1ccc(/C=C/c2c3ccccc3c(/C=C/c3ccc(OCCCCCC[Se][Se]CCCCCCOc4ccc(/C=C/c5c6ccccc6c(/C=C/c6ccc(N(C)C)cc6)c6ccccc56)cc4)cc3)c3ccccc23)cc1`, the IC50 with HeLa came out at 3.96 µM; in the assay with HepG2, 4.45 µM. Turning to `NC(=[Se])NN=C(c1cccc(Br)c1)c1cccc(Br)c1`, the IC50 in the assay on Trypanosoma cruzi amounted to 1.2 µM. Turning to `NC(=[Se])N1CCCC1`, in [6], the IC50 came out at 6.5 µM. With `Clc1ccc(-c2c[se]c(NN=C3CCSCC3)n2)cc1`, in the assay with Pichia kudriavzevii, the MIC came to 3.91 µg/mL (≈ 10.5 µM). For `C[Se]CC[C@H](N)C(=O)O` [SELENOMETHIONINE], the IC50 was 50 µM in the assay on UACC-375 (Homo sapiens, UACC-375, 144 h); 130 µM with HT-29; 45 µM with Plasmodium falciparum; 65 µM with A549; 40 µM with DU-145. Also, the values for the IC5 with UACC-375 (time 6 day) and with MCF7S were 50 µM and 45 µM, respectively. Take `Cc1ccc2nc(-c3ccc4n[se]nc4c3)[nH]c2c1`: the IC50 with MDA-MB-231 came to 1 µM; in the assay with MCF7 [7] it was 4.1 µM. Take `c1ccc2[nH]c(-c3ccc4n[se]nc4c3)nc2c1`: the IC50 was 12.3 µM in the assay on MDA-MB-231 and 15.4 µM in the assay with MCF7 [7]. For the compound `Brc1ccc(-c2c[se]c(NN=C3CCSCC3)n2)cc1`, the MIC in the assay with Pichia kudriavzevii is 3.91 µg/mL (≈ 9.42 µM).

Regarding `[Se]=P(c1ccccn1)(c1ccccn1)c1ccccn1`, the Ki amounted to 0.0563 µM on Carbonic anhydrase 1 and 0.0537 µM at Carbonic anhydrase 2. For `CCCC/C(=N\NC(N)=[Se])c1ccc(Cl)c(Cl)c1`, the IC50 with Trypanosoma cruzi amounted to 1.2 µM. As for `O=C(O)C[Se]C(=O)c1ccccc1`, the results for the IC50 in the assay with MCF7 [8] and in the assay on PC-3 were 0.09 µM and 6.8 µM, respectively. With `FC(F)(F)c1ccc(-c2c[se]c(NN=C3CCSCC3)n2)cc1`, the MIC in the assay on Pichia kudriavzevii stood at 0.98 µg/mL (≈ 2.42 µM).
